Measurements: ChEMBL document CHEMBL2413041, “In search of potent and selective inhibitors of neuronal nitric oxide synthase with more simple structures” (Bioorg Med Chem, 2013)
pKi: −log10 of the molar value.

Key:
[1] = target: Nitric oxide synthase 1 (Rattus norvegicus, UniProt P29476); assay: Inhibition of recombinant rat nNOS expressed in Escherichia coli using L-arginine as substrate assessed as formation of nitric oxide measured up to 60 secs by hemoglobin capture assay
[2] = Selectivity ratio of Ki for recombinant bovine eNOS to Ki for recombinant rat nNOS
[3] = Selectivity ratio of Ki for recombinant mouse macrophage iNOS to Ki for recombinant rat nNOS
[4] = target: T1, Nitric oxide synthase 3 (Bos taurus, UniProt P29473); assay: Inhibition of recombinant bovine eNOS expressed in Escherichia coli using L-arginine as substrate assessed as formation of nitric oxide measured up to 60 secs by hemoglobin capture assay
T1 sequence (P29473 whole entry): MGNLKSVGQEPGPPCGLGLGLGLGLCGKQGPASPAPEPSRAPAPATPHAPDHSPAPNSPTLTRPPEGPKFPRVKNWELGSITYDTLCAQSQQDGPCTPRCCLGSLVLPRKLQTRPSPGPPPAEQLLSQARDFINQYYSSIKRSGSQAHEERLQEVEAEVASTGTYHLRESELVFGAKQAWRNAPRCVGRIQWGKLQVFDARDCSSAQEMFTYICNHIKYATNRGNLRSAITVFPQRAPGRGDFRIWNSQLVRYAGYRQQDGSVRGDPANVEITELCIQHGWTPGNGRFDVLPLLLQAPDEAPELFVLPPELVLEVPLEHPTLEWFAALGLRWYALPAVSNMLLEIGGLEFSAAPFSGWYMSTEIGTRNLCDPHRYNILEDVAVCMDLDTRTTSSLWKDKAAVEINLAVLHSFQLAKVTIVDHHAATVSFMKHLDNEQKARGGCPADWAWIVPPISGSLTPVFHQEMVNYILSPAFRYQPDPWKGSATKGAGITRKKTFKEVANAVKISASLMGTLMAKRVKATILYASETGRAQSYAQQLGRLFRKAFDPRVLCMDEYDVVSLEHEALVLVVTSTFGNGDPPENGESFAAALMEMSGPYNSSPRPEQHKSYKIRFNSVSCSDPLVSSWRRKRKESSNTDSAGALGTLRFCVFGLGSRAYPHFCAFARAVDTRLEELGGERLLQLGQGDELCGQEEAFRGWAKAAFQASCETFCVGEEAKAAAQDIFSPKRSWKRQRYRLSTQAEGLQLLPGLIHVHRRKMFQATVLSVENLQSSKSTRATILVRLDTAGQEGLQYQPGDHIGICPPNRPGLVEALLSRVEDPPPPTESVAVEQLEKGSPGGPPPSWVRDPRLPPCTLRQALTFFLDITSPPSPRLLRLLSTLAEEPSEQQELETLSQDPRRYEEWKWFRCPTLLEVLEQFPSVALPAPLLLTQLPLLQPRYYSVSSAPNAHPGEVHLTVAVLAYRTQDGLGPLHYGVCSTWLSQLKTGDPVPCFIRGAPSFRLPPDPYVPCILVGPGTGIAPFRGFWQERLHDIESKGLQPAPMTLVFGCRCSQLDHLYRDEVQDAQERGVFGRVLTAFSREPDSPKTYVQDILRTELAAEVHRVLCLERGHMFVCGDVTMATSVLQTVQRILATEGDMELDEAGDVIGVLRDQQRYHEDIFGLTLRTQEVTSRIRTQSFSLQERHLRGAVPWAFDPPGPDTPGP

[5] = target: T2, Nitric oxide synthase, inducible (Mus musculus, UniProt P29477); assay: Inhibition of recombinant mouse macrophage iNOS expressed in Escherichia coli using L-arginine as substrate assessed as formation of nitric oxide measured up to 60 secs by hemoglobin capture assay
T2 sequence (P29477 whole entry): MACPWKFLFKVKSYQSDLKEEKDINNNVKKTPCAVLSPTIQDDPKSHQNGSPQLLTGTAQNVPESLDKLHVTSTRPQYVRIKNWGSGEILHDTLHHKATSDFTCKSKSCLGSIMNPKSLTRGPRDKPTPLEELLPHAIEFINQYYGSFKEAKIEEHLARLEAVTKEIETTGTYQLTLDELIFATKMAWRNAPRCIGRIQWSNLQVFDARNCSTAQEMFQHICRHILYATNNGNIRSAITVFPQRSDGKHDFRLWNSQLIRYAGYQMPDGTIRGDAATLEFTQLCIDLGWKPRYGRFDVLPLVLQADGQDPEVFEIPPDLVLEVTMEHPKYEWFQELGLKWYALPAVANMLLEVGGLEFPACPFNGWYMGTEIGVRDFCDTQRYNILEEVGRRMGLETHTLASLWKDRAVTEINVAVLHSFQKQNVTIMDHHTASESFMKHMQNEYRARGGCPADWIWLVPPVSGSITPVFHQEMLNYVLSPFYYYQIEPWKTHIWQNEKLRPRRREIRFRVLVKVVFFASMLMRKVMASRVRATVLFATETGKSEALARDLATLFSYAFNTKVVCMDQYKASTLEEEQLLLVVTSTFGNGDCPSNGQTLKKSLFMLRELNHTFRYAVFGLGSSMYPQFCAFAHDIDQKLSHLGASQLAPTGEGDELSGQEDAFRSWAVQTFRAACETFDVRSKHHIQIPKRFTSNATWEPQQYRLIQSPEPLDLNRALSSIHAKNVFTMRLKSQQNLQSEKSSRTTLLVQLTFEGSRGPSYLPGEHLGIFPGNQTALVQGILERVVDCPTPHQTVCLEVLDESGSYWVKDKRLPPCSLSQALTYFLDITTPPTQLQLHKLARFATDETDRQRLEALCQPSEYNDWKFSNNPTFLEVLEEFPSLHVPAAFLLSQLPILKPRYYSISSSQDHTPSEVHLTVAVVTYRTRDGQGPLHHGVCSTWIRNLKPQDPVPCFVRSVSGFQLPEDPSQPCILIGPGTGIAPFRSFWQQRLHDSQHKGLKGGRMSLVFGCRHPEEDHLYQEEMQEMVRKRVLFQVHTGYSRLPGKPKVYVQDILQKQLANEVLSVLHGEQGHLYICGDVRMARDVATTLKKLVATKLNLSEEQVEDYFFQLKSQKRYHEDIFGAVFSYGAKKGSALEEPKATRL

Nitric oxide synthase 1, sequence (P29476 whole entry): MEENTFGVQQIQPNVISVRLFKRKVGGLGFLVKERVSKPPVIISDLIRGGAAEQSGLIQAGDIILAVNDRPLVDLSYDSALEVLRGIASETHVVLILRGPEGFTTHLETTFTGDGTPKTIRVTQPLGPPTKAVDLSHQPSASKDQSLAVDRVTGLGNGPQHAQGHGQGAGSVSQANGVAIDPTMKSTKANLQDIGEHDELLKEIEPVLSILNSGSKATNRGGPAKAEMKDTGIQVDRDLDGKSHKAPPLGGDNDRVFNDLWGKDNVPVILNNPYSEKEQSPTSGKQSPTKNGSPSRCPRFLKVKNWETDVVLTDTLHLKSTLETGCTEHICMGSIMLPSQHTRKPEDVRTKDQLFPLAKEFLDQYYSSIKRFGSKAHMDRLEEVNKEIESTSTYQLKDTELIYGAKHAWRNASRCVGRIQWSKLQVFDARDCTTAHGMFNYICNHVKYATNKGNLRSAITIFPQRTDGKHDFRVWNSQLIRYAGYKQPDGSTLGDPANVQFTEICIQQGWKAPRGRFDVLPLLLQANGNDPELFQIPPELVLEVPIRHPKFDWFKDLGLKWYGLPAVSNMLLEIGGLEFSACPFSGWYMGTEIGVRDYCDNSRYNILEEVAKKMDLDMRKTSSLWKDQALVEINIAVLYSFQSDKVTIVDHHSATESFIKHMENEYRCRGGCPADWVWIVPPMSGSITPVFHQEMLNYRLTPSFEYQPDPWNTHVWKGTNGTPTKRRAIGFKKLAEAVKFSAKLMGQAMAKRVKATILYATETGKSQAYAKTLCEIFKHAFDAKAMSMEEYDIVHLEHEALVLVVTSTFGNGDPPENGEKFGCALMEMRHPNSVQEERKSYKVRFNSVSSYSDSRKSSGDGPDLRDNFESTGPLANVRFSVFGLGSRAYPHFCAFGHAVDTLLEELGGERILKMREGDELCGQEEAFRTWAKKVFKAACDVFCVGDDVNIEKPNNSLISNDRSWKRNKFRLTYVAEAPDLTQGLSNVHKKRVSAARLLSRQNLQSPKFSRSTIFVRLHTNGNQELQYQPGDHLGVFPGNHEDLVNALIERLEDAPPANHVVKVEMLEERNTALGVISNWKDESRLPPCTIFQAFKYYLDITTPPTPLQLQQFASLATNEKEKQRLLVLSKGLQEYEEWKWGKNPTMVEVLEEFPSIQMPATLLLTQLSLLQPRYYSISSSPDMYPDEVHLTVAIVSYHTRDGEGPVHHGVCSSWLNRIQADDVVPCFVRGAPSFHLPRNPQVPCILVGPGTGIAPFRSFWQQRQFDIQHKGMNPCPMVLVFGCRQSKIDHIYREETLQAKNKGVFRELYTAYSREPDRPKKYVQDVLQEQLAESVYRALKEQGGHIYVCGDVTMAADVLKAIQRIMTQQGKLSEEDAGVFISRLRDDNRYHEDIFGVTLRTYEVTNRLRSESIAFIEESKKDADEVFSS

| pKi [1] | Ratio Ki [2] | Ratio Ki [3] | pKi [4] | pKi [5] | Compound |
| --- | --- | --- | --- | --- | --- |
| 5.41 |  |  |  |  | Cc1cc(N)nc(COc2ccccc2-c2ccccc2OCc2ccncc2)c1 |
|  | 298 | 140 |  |  | Cc1cc(N)nc(COc2cccc(OCCCN)c2)c1 |
| 5.37 |  |  |  |  | Cc1cc(N)nc(COc2ccccc2-c2ccccc2OCC2CCNCC2)c1 |
| 6.57 | 21 | 31 | 5.25 | 5.07 | Cc1cc(N)nc(COCc2cccc(CNCCc3cccc(F)c3)n2)c1 |
| 7.07 | 25 | 25 | 5.67 | 5.66 | Cc1cc(N)nc(CCCCCCCc2cc(C)cc(N)n2)c1 |
| 5.67 |  |  |  |  | Cc1cc(N)nc(COc2cccc(NCCc3cccc(F)c3)c2)c1 |
|  | 102 | 44 |  |  | Cc1cc(N)nc(COc2cccc(OCc3ccncc3)c2)c1 |
|  |  |  |  | 6.43 | Cc1cc(N)nc(CCCCCc2cc(C)cc(N)n2)c1 |
| 7.48 | 86 | 54 | 5.55 | 5.75 | Cc1cc(N)nc(CCCCCCc2cc(C)cc(N)n2)c1 |

| Compound | pKi [1] | Ratio Ki [2] | Ratio Ki [3] | pKi [4] | pKi [5] |
| --- | --- | --- | --- | --- | --- |
| Cc1cc(N)nc(COc2cccc(OCC3CCNCC3)c2)c1 |  | 239 | 146 |  |  |
